Patent US4777167A, “Pharmaceutically useful substituted thiacycloalkeno [3,2-b]pyridines, compositions and method of use” (Ortho Pharmaceutical Corporation, priority 1987, dated 1988)

Tests used:
[1] = biological target: T1, calcium channels (Oryctolagus cuniculus, UniProt P15381); experiment: Inhibition of nitrendipine binding (3H-nitrendipine displacement, rabbit heart membranes); parameters: species or system rabbit (New Zealand white); details: Table II, 90 min, 4° C.
T1 construct: from tissue; host or cells: heart of female New Zealand white rabbits, membrane fraction (42,000×g pellet)
T1 sequence (P15381 whole entry, other chains not shown): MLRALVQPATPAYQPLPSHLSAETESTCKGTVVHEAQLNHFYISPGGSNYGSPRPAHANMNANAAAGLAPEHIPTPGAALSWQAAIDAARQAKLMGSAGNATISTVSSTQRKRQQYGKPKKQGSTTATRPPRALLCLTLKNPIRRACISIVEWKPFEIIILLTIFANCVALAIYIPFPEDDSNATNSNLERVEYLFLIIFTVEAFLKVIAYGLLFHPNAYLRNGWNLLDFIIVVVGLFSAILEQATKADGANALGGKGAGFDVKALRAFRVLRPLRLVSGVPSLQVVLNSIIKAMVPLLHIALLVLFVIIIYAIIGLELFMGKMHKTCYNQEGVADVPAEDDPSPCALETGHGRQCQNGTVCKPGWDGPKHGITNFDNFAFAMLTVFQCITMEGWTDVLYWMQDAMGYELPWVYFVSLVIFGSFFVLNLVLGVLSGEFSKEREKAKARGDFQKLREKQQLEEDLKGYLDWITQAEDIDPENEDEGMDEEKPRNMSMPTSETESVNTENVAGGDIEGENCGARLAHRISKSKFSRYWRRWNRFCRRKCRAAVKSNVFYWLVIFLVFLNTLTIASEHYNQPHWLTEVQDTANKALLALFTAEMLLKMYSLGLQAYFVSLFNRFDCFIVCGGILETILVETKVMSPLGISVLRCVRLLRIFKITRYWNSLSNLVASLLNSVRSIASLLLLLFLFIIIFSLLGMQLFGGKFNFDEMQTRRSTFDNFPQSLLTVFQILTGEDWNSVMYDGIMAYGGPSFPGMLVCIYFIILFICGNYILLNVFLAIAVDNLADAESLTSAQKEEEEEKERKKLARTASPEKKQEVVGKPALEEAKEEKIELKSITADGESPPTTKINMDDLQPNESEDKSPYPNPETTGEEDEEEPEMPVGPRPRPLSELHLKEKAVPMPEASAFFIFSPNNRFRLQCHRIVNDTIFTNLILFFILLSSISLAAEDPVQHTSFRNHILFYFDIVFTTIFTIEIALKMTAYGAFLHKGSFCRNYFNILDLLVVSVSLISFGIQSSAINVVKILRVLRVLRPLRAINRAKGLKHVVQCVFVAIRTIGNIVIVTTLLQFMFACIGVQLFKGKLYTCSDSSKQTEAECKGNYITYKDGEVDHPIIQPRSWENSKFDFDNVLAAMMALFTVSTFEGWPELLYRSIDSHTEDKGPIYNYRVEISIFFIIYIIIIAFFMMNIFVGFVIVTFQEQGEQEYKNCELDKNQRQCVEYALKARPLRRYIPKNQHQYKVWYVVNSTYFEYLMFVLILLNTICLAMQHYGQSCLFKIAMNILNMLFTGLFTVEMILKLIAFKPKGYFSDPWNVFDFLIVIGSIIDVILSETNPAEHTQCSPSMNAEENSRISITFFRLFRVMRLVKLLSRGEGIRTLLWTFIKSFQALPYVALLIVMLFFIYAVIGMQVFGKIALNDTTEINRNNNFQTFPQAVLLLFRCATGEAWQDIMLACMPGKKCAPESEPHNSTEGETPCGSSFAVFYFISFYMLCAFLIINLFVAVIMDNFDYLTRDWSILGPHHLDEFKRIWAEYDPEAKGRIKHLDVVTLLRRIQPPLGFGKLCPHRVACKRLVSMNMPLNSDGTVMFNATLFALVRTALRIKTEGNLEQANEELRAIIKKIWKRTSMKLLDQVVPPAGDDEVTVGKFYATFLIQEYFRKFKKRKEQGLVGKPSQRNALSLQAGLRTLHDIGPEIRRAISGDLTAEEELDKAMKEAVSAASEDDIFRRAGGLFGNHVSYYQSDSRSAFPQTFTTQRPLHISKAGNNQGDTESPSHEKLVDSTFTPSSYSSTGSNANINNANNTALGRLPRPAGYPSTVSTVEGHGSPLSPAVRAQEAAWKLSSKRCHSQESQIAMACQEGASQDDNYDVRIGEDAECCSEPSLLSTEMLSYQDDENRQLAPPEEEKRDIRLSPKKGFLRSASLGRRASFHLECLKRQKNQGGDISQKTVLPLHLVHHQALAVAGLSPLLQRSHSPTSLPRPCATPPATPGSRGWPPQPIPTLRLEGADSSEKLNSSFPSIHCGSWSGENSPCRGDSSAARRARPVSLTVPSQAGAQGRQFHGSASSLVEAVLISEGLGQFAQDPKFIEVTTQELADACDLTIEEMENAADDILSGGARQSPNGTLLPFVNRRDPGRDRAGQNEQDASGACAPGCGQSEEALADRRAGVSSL
T1 sequence (P13806 27-960 partner limits assumed, other chains not shown): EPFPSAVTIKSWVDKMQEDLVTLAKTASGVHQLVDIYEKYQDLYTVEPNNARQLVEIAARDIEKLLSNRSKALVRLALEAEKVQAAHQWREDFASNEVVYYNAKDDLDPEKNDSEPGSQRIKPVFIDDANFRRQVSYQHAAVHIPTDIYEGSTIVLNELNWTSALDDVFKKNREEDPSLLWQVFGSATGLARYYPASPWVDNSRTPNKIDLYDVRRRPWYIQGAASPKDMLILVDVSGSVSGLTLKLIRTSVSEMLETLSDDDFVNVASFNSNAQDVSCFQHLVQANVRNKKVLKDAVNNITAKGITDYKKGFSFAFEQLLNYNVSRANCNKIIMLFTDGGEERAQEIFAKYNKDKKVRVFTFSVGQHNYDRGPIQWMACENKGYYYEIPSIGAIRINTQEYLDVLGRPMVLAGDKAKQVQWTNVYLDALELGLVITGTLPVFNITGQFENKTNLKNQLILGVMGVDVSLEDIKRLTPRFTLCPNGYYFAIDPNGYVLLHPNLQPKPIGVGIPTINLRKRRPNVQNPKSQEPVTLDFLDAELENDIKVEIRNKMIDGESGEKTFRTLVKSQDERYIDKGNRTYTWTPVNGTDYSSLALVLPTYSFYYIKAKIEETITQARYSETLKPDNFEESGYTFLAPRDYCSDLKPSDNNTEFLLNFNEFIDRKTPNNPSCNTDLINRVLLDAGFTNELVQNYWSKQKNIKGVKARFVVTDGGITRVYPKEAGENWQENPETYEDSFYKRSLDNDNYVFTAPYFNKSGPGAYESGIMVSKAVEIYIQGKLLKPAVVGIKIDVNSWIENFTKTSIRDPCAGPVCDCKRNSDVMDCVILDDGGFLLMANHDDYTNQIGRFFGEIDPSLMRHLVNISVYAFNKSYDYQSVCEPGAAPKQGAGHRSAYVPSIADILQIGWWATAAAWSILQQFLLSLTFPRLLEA
T1 sequence (P13806 961-1106 partner limits assumed, other chains not shown): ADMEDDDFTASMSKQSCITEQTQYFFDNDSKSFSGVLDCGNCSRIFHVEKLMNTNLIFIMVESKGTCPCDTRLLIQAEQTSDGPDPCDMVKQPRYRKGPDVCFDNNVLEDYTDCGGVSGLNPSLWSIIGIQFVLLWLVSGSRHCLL
Experimental: (1) Inhibition of nitrendipine binding to calcium channels.
The assay for inhibition of nitrendipine binding follows the following procedure:
Female, New Zealand white rabbits (1-2 kg) are sacrificed by cervical dislocation, and the heart is immediately removed, cleaned, and chopped into small pieces. The tissue is homogenized in 5× volume of 0.05M Hepes buffer, pH 7.4. The homogenate is centrifuged at 4000×g for 10 minutes; the supernatant is recentrifuged at 42,000×g for 90 minutes. The resulting membrane pellet is resuspended (0.7 ml/g weight) in 0.05M Hepes, pH 7.4 and stored at -70° C. until used. Each tube of the binding assay contains ^3 H- nitrendipine (0.05-0.50 nM), buffer, membranes (0.10 ml), and test compound in a total volume of 1.0 ml. After 90 minutes at 4° C., the bound nitrendipine is separated from the unbound by filtration on Whatman GF/C fibers. After rinsing, the filters are dried and counted in a liquid scintillation counter.
Non-specific binding of ^3 H-nitrendipine (that amount bound in the presence of excess unlabelled nitrendipine) is subtracted from the total bound to obtain specifically bound radiolabeled nitrendipine. The amount of specifically bound nitrendipine in the presence of a test compound is compared to that amount bound in the absence of a compound. A percent displacement (or inhibition) can then be obtained.

[2] = system: trachealis muscle; experiment: Inhibition of calcium dependent smooth muscle contraction (KCl-challenged trachea); type: cell-based, dog; details: Canis lupus familiaris, Table II; for inhibition at 0.1 µM: concentration 0.1 μM; for inhibition at 0.1 µM / inhibition at 0.2 µM / inhibition at 2 µM: read-out: Inhibition Trachea Muscle Contraction % Inhibition; for inhibition at 0.2 µM: concentration 0.2 μM; for inhibition at 1 µM: concentration 1.0 μM; for inhibition at 2 µM: concentration 2.0 μM
Experimental: The test for inhibition of calcium dependent smooth muscle contraction is determined according to the following procedure:
Trachea from dogs sacrificed by excess KCl injection are stored overnight at 4° C. in oxygenated Krebs-Henseleit buffer. Tracheal rings, one cartilage segment wide (5-10 mm), are cut starting from the bronchial end. After cutting the cartilage, the trachealis muscle tissue is suspended in oxygenated Krebs-Henseleit buffer at 37° C. in a 25 ml tissue bath. After a 60 minutes equilibration period, the tissues are challenged with 10 μM carbachol. After 5 minutes the tissues are rinsed and allowed to rest 50 minutes. The tissues are then challenged with 50 mM KCl and, after 30 minutes, the contractions are quantitated. The tissues are then rinsed and reequilibrated for 50 minutes. Test compounds are then added for 10 minutes, and the tissue is rechallenged with 50 mMKcl. After 30 minutes, the contraction is recorded and used to determine the % inhibition of control.
The percent inhibition of smooth muscle contraction is calculated from response data before and after drug treatment. [formula] A rating is assigned to the compound depending upon the percent inhibition obtained.

[3] = system: Aorta Muscle; experiment: Inhibition of aorta muscle contraction; type: cell-based; details: Table II; for inhibition at 0.1 µM: concentration 0.1 μM

IC50 [1] [nM] | Compound | inhibition at 0.1 µM [2] [%] | inhibition at 0.1 µM [3] [%] | inhibition at 0.2 µM [2] [%] | inhibition at 1 µM [2] [%] | inhibition at 2 µM [2] [%] | inhibition at 3 µM ([3]; concentration 3.0 μM) [%] | inhibition at 0.01 µM ([3]; concentration 0.01 μM) [%]
440 | CC1=C(C(=O)OCCN(C)Cc2ccccc2)C(c2ccccc2[N+](=O)[O-])C2=C(CCCCS2(=O)=O)N1 (stereo not drawn) [4 2-NO2C6 H4] | 49 | 44 | – | – | – | – | –
200 | CC1=C(C(=O)OCCN(C)Cc2ccccc2)C(c2cccc(C(F)(F)F)c2Cl)C2=C(CCCCCS2(=O)=O)N1 (stereo not drawn) [5 2-Cl,3-CF3C6 H3, N-Benzyl-N-methylaminoethyl 10-(2-chloro-3-trifluoromethylphenyl)-3,4,5,6,7,10-hexahydro-8-methyl-1,1-dioxothiacycloocteno[3,2-b]pyridine-9-carboxylate] | 57 | 78 | – | – | – | – | –
2800 | CC1=C(C(=O)OCCN(C)Cc2ccccc2)C(c2cccc(C(F)(F)F)c2)C2=C(CCCCS2(=O)=O)N1 (stereo not drawn) [4 3-CF3C6 H4] | – | 44 | 37 | – | – | – | –
100 | CC1=C(C(=O)OCCN2CCc3ccccc32)C(c2cccc([N+](=O)[O-])c2)C2=C(CCCCS2(=O)=O)N1 (stereo not drawn) [4 3-NO2C6 H4 drawing 9] | – | 80 | – | 56 | – | – | –
2400 | CC1=C(C(=O)OCCO)C(c2cccc([N+](=O)[O-])c2)C2=C(CCCCS2(=O)=O)N1 (stereo not drawn) [4 3-NO2C6 H4 CH2 CH2 OH] | – | – | – | – | 23 | 41 | –
86 | CC1=C(C(=O)OCCN(C)Cc2ccccc2)C(c2c(Cl)cccc2Cl)C2=C(CCCCS2(=O)=O)N1 (stereo not drawn) [4 2,6-Cl2C6 H3] | 55 | 50 | – | – | – | – | –
149 | CC1=C(C(=O)OCCN(C)CCc2ccccc2)C(c2cccc(Cl)c2Cl)C2=C(CCCCCS2(=O)=O)N1 (stereo not drawn) | – | 67 | – | 57 | – | – | –
45 | CC1=C(C(=O)OCCN(C)c2ccccc2)C(c2cccc([N+](=O)[O-])c2)C2=C(CCCCS2(=O)=O)N1 (stereo not drawn) [4 3-NO2C6 H4 CH2 CH2 NCH3 C6 H5] | – | 53 | – | 65 | – | – | –
18 | CC1=C(C(=O)OCCN(C)c2ccccc2)C(c2c(F)c(F)c(F)c(F)c2F)C2=C(CCCCCS2(=O)=O)N1 (stereo not drawn) [5 C6 F5 CH2 CH2 NCH3 C6 H5, N-Methyl-N-phenylaminoethyl 10-(2,3,4,5,6-pentafluorophenyl)-3,4,5,6,7,10-hexahydro-8-methyl-1,1-dioxothiacycloocteno[3,2-b]pyridine-9-carboxylate] | 47 | 63 | – | – | – | – | –
260 | CC1=C(C(=O)OCCN(C)Cc2ccccc2)C(c2cc([N+](=O)[O-])ccc2Cl)C2=C(CCCCS2(=O)=O)N1 (stereo not drawn) [4 2-Cl,5-NO2C6 H3] | 38 | 63 | – | – | – | – | –
160 | CC1=C(C(=O)OCCN(C)Cc2ccccc2)C(c2ccccc2C(F)(F)F)C2=C(CCCCS2(=O)=O)N1 (stereo not drawn) [4 2-CF3C6 H4, N-Benzyl-N-methylaminoethyl 2,4,5,6,9-hexahydro-7-methyl-9-(2-trifluoromethylphenyl)-1,1-dioxothiacyclohepteno[3,2-b]pyridine-8-carboxylate] | 64 | 85 | – | – | – | – | –
860 | CC1=C(C(=O)OC2CCN(Cc3ccccc3)CC2)C(c2cccc([N+](=O)[O-])c2)C2=C(CCCCS2(=O)=O)N1 (stereo not drawn) [4 3-NO2C6 H4 drawing 7] | – | 12 | – | – | 17 | – | –
100 | CC1=C(C(=O)OCCN(C)Cc2ccccc2)C(c2cccc(Cl)c2Cl)C2=C(CCCCS2(=O)=O)N1 (stereo not drawn) [4 2,3-Cl2C6 H3, N-Benzyl-N-methylaminoethyl 9-(2,3-dichlorophenyl)-2,4,5,6,9-hexahydro-7-methyl-1,1-dioxothiacyclohepteno[3,2-b]pyridine-8-carboxylate] | 62 | 83 | – | – | – | – | –
440 | CC1=C(C(=O)OCCN(C)Cc2ccccc2)C(c2ccccc2F)C2=C(CCCCS2(=O)=O)N1 (stereo not drawn) [4 2-FC6 H4] | – | 32 | – | – | 84 | – | –
220 | CC1=C(C(=O)OCCN(C)Cc2ccccc2)C(c2ccccc2Cl)C2=C(CCCCS2(=O)=O)N1 (stereo not drawn) [4 2-ClC6 H4, N-Benzyl-N-methylaminoethyl 9-(2-chlorophenyl)-2,4,5,6,9-hexahydro-7-methyl-1,1-dioxothiacyclohepteno[3,2-b]pyridine-8-carboxylate] | 57 | 54 | – | – | – | – | –
87 | CC1=C(C(=O)OCCN(C)Cc2ccccc2)C(c2c(F)c(F)c(F)c(F)c2F)C2=C(CCCCCS2(=O)=O)N1 (stereo not drawn) [5 C6 F5, N-Benzyl-N-methylaminoethyl 10-(2,3,4,5,6-pentafluorophenyl)-3,4,5,6,7,10-hexahydro-8-methyl-1,1-dioxo-2H-thiacycloocteno[3,2-b]pyridine-9-carboxylate] | 50 | 70 | – | – | – | – | –
390 | CC1=C(C(=O)OCCN(C)Cc2ccccc2)C(c2cccc(C(F)(F)F)c2Cl)C2=C(CCCCS2(=O)=O)N1 (stereo not drawn) [4 2-Cl,3-CF3C6 H3] | – | 66 | 50 | – | – | – | –
86 | CC1=C(C(=O)OCCN(C)c2ccccc2)C(c2ccccc2[N+](=O)[O-])C2=C(CCCCS2(=O)=O)N1 (stereo not drawn) [4 2-NO2C6 H4 CH2 CH2 NCH3 C6 H5] | 57 | 43 | – | – | – | – | –
470 | CC1=C(C(=O)OCCN(C)Cc2ccccc2)C(c2cccc(C(F)(F)F)c2Cl)C2=C(CCCCCCS2(=O)=O)N1 (stereo not drawn) [6 2-Cl,3-CF3C6 H3, N-Benzyl-N-methylaminoethyl 19-(2-chloro-3-trifluoromethylphenyl)-2,3,4,5,6,7,8,11-octahydro-9-methyl-1,1-dioxothiacyclononeno[3,2-b]pyridine-10-carboxylate] | – | 30 | – | – | 46 | – | –
65 | CC1=C(C(=O)OCCc2ccccn2)C(c2cccc([N+](=O)[O-])c2)C2=C(CCCCCS2(=O)=O)N1 (stereo not drawn) [5 3-NO2C6 H4 drawing 10] | 53 | 48 | – | – | – | – | –
290 | CC1=C(C(=O)OCCCN(C)Cc2ccccc2)C(c2cccc([N+](=O)[O-])c2)C2=C(CCCCS2(=O)=O)N1 (stereo not drawn) [4 3-NO2 C6 H4 CH2 CH2 CH2 NCH3 CH2 C6 H5] | – | 25 | – | – | 50 | – | –
16 | CC1=C(C(=O)OCCNc2ccccc2)C(c2cccc([N+](=O)[O-])c2)C2=C(CCCCS2(=O)=O)N1 (stereo not drawn) [4 3-NO2C6 H4 CH2 CH2 NHC6 H5] | – | 48 | – | 72 | – | – | –
1000 | CC1=C(C(=O)OCCCN(C)Cc2ccccc2)C(c2ccccc2[N+](=O)[O-])C2=C(CCCCS2(=O)=O)N1 (stereo not drawn) [4 2-NO2C6 H4 CH2 CH2 CH2 NCH3 CH2 C6 H5] | – | 7.7 | – | 41 | – | – | –
200 | CC1=C(C(=O)OCCN2CCc3ccccc3C2)C(c2cccc([N+](=O)[O-])c2)C2=C(CCCCS2(=O)=O)N1 (stereo not drawn) [4 3-NO2C6 H4 drawing 11] | – | 53 | 45 | – | – | – | –
46 | CC1=C(C(=O)OCCN(C)c2ccccc2)C(c2ccccc2C(F)(F)F)C2=C(CCCCS2(=O)=O)N1 (stereo not drawn) [4 2-CF3C6 H4 CH2 CH2 NCH3 C6 H5] | 59 | 57 | – | – | – | – | –
120 | CC1=C(C(=O)OCCN(C)Cc2ccccc2)C(c2cc(F)ccc2F)C2=C(CCCCS2(=O)=O)N1 (stereo not drawn) [4 2,5-F2C6 H3] | 43 | 47 | – | – | – | – | –
95 | CC1=C(C(=O)OCCN(C)Cc2ccccc2)C(c2ccccc2OC(F)F)C2=C(CCCCCS2(=O)=O)N1 (stereo not drawn) [5 2-OCHF2C6 H4, N-Benzyl-N-methylaminoethyl 10-(2-difluoromethoxyphenyl)-3,4,5,6,7,10-hexahydro-8-methyl-1,1-dioxothiacycloocteno[3,2-b]pyridine-9-carboxylate] | 76 | – | – | – | – | – | 80
